Like-named read-outs stand apart in the source and are kept apart here.
Key:
Format in all cases: in vivo
[1] = test system: Southern Armyworm (Spodoptera eridania), 2nd Instar Larvae; assay: CE.7 Southern armyworm, 2nd instar larvae, comparative test; settings: foliar, 96 h, leaf dip, at 4 days, read-out: % mortality in comparison to untreated controls
Method: (§1) The tables show % mortality in comparison to untreated controls.
CE.7 Southern Armyworm (Spodoptera eridania), 2nd Instar Larvae
The active compounds were formulated in 50:50 acetone:water (vol) and 100 ppm Kinetica™ surfactant.
A pair of first true leaves of Sieva lima bean was dipped into the test solution and allowed to dry. The leaves were then placed in a plastic perforated zip enclosure bag and ten 2nd instar larvae were added. At 4 days, observations were made of mortality and reduced feeding.

[2] = test system: Silverleaf Whitefly (Bemisia argentifolii); assay: CE.4 Silverleaf whitefly, comparative test; settings: 72 h, read-out: % mortality in comparison to untreated controls
Method: as §1
CE.4 Silverleaf Whitefly (Bemisia argentifolii)
The active compounds were formulated in 50:50 acetone:water (vol:vol) and 100 ppm Kinetica™ surfactant.
Selected cotton plants were grown to the cotyledon state (one plant per pot). The cotyledons were dipped into the test solution to provide complete coverage of the foliage and placed in a well-vented area to dry. Each pot with treated seedling was placed in a plastic cup and 10 to 12 whitefly adults (approximately 3-5 day old) were introduced. The insects were collected using an aspirator and a Tygon® tubing connected to a barrier pipette tip. The tip, containing the collected insects, was then gently inserted into the soil containing the treated plant, allowing insects to crawl out of the tip to reach the foliage for feeding. The cups were covered with a reusable screened lid. Test plants were maintained in the holding room at about 25° C. and about 20-40% relative humidity for 3 days avoiding direct exposure to the fluorescent light (24 hour photoperiod) to prevent trapping of heat inside the cup. Mortality was assessed 3 days after treatment of the plants.

[3] = test system: Orchid Thrips (Dichromothrips Corbetti); assay: B.7 Orchid thrips, floral immersion; settings: read-out: mortality in comparison with untreated controls
Method in brief: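 Orchid flower petals dipped in compound diluted in 1:1 acetone:water plus 0.01% v/v Kinetic HV, dried, then enclosed with about 20 adult lab-colony thrips. Held under continuous light at about 28 °C; percent mortality recorded 72 hours after treatment.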

[4] = test system: Vetch Aphid (Megoura viciae); assay: B.3 Vetch aphid, broad bean leaf disks; settings: foliar, 120 h, read-out: mortality in comparison with untreated controls
Method in brief: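 Broad bean leaf disks sprayed with compounds in 25% DMSO/water at various concentrations, two replicates, then air-dried and infested with 5-8 adult Megoura viciae (contact/systemic exposure). After 5 days at about 23±1 °C and 50±5% RH, mortality and fecundity scored visually.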

[5] = test system: Green Soldier Stink Bug (Nezara viridula); assay: B.11 Green soldier stink bug, sprayed soybean pods; settings: 120 h, read-out: mortality in comparison with untreated controls
Method in brief: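 Ten late 3rd-instar N. viridula on soybean pods in Petri dishes were sprayed with compound in 1:1 water:acetone plus 0.01% surfactant. Dishes were held at about 25° C. Percent mortality was scored after 5 days.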

[6] = test system: Orchid Thrips (Dichromothrips Corbetti); assay: CE.3 Orchid thrips, comparative test; settings: 96 h, 10 ppm, after 4 days, read-out: % mortality in comparison to untreated controls
Method in brief: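 Orchid flower petals were dipped in 300 ppm compound in 1:1 acetone:water plus 0.01% v/v surfactant and dried, then caged with 10-15 lab-colony adults. Live thrips were counted after 4 days, and % mortality was derived from pre-treatment numbers relative to untreated controls.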

[7] = test system: Rice Brown Plant Hopper (Nilaparvata lugens); assay: CE.2 Rice brown plant hopper, comparative test; settings: 10 ppm, after 72 hours, read-out: % mortality in comparison to untreated controls
Method: as §1
CE.2 Rice Brown Plant Hopper (Nilaparvata lugens)
Rice seedlings were cleaned and washed 24 hours before spraying. The active compounds were formulated in 50:50 acetone:water (vol:vol) and 0.1% vol/vol surfactant (EL 620) was added. Potted rice seedlings were sprayed with 5 ml test solution, air dried, placed in cages and inoculated with 10 adults. Treated rice plants were kept at about 28-29° C. and relative humidity of about 50-60%. Percent mortality was recorded after 72 hours.

[8] = test system: Cowpea Aphid (Aphis Craccivora); assay: CE.1 Cowpea aphid, comparative test; settings: read-out: % mortality in comparison to untreated controls
Method: as §1
CE.1 Cowpea Aphid (Aphis Craccivora)
Potted cowpea plants colonized with approximately 100-150 aphids of various stages were sprayed after the pest population has been recorded. Population reduction was assessed after 24, 72, and 120 hours.

In the case of `CN1C(=O)CC(NC(=O)c2ccc(C3=NOC(c4cc(Cl)c(F)c(Cl)c4)(C(F)(F)F)C3)cc2Cl)C1=O` (stereo not drawn) [Compound I-1-2, 2-Chloro-4-[5-(3,5-dichloro-4-fluoro-phenyl)-5-(trifluoromethyl)-4H-isoxazol-3-yl]-N-(1-methyl-2,5-dioxo-pyrrolidin-3-yl)benzamide], the mortality at 3 ppm [1] is reported as 100%, the mortality at 10 ppm [2] is reported as 88% and the mortality at 300 ppm ([3]; Thrips, 72 h) is reported as > 75%. The mortality at 2500 ppm [4] was > 75% and the mortality at 300 ppm [5] was > 75%.

With `CCN1C(=O)C[C@@H](NC(=O)c2ccc(C3=NOC(c4ccc(F)c(Cl)c4)(C(F)(F)F)C3)cc2Cl)C1=O` (stereo partly drawn) [Compound I-1-53] the mortality at 10 ppm [6] was 100%, the mortality at 300 ppm ([3]; 300 ppm, adult thrips, 72 hours after treatment) was > 75% and the mortality at 10 ppm [7] was 75%. The mortality at 2500 ppm ([4]; 2500 ppm, sprayed leaf disks, 5 days) was > 75%, the mortality at 10 ppm ([8]; 10 ppm, sprayed cowpea plants) was 100% and the mortality at 300 ppm ([5]; 300 ppm, late 3rd instar, after 5 days) was > 75%.

`CN1C(=O)CC(NC(=O)c2ccc(C3=NOC(c4cc(Cl)c(F)c(Cl)c4)(C(F)(F)F)C3)c3c2CCC3)C1=O` (stereo not drawn) [Compound I-1-10] was tested, and the mortality at 3 ppm [1] was 100%, the mortality at 300 ppm ([3]; Thrips, 72 h) was > 75% and the mortality at 2500 ppm [4] was > 75%. For the same molecule, the mortality at 300 ppm [5] was > 75%.

With `CCN1C(=O)CC(NC(=O)c2ccc(C3=NOC(c4cc(Cl)c(F)c(Cl)c4)(C(F)(F)F)C3)cc2Cl)C1=O` (stereo not drawn) [Compound I-1-3] the mortality at 3 ppm [1] was 100%, the mortality at 10 ppm [2] was 75% and the mortality at 300 ppm ([3]; Thrips, 72 h) was > 75%. The mortality at 2500 ppm [4] was > 75% and the mortality at 300 ppm [5] was > 75%.

For `CN1C(=O)C[C@@H](NC(=O)c2ccc(C3=NOC(c4cc(Cl)c(F)c(Cl)c4)(C(F)(F)F)C3)cc2Cl)C1=O` (stereo partly drawn) [Compound I-1-13], the mortality at 300 ppm ([3]; Thrips, 72 h) was > 75%, the mortality at 2500 ppm [4] was > 75% and the mortality at 10 ppm [8] was 90%. For the same molecule, the mortality at 300 ppm [5] was > 75%.
